Read-outs that look alike come from different tables or passages of the source.
Assays:
[1] = test system: P. falciparum 3D7; assay: Drug sensitivity assay, 72 h, PfLDH-based; format: cell-based; settings: Plasmodium falciparum, 3D7; Figure 6b; read-out: Growth inhibition EC50, 3D7
Procedure: The P. falciparum 3D7 strain was cultured, as described previously, in 3% hematocrit type A human red blood cells (RBCs) in RPMI1640 medium (Invitrogen; San Diego, CA, USA) supplemented with 25 mM sodium hydrogen biocarbonate, 10 μg/mL hypoxanthine, 40 μg/mL gentamicin sulfate, and 0.5% (w/v) Albumax II (Invitrogen) (“complete medium”). Cultures were maintained in a MG-70M multi-gas incubator (Taitec) under the conditions of 5% O2, 5% CO2, and 90% N2 at 37 °C. The medium was replaced daily. Parasitemia was measured by thin blood smears stained with Giemsa. In our previous study, we generated mutant P. falciparum strains expressing either disrupted or full-length versions of the flavoprotein (Fp) subunit (encoded by the Pfsdha gene). Both strains were cultured in complete medium at 3% hematocrit supplemented with 5 nM WR99210 (Jacobus Pharmaceuticals; Plainsboro, NJ, USA). The experiments using human RBCs were performed under the guidelines of Research Ethics Committee of the Faculty of Medicine of the University of Tokyo and Institutional Review Board (IRB) of Nagasaki University (Permission nos. 10050 and no. 19, respectively). Human RBCs were obtained from The Japanese Red Cross Society. The synchronization of parasite cultures was performed by treating with 5% (w/v) sorbitol for 10 min [77].
(§1) Synchronized ring-form parasites (0.3% parasitemia) were prepared in complete medium containing different concentration of various compounds (at a fixed final DMSO concentration of 0.1% (v/v)) and distributed to 96-well plates at 100 μL/well. After 72 h of incubation, parasite growth was monitored by the previously described lactate dehydrogenase (PfLDH)-based assay method; plates were read using a SpectraMax® Paradigm spectrophotometer (Molecular Devices, Inc.; San Jose, CA, USA). EC50 values were calculated using Prism® ver.6.01 (GraphPad; San Diego, CA, USA). Values are presented as the means of three independent experiments.

[2] = test system: P. falciparum 3D7-yDHODH; assay: Growth inhibition of yeast DHODH-expressing strain; format: cell-based; settings: Plasmodium falciparum, 3D7, read-out: Growth inhibition EC50, 3D7-yDHODH
Procedure: P. falciparum 3D7-yDHODH was prepared and maintained as described previously. P. falciparum Dd2, and Dd2-derived mutant strains were kindly provided by David A. Fidock, and maintained at Nagasaki University essentially as described in reference, except without supplementation with WR99210.
as §1

[3] = test system: Plasmodium spp. complex II; assay: Plasmodium spp. complex II inhibition (literature values); format: biochemical; settings: ratio between mammalian and Plasmodium complex II IC50s
Excerpt: Table 1 Selectivity of classical complex II inhibitor against Plasmodium spp. and mammal complex II. | column: Selectivity ^a

[4] = test system: Mammal complex II; settings: read-out: Complex II IC50, Mammal, cited from earlier work
[5] = test system: Plasmodium spp. complex II; settings: cited from earlier work; for Effect on Plasmodium mitochondrial complex II: classical ubiquinone-site inhibitors, ref [30], [14]

Row | Structure (SMILES) | EC50 [1] | EC50 [2] | Selectivity [3] | IC50 ([4]; ref Miyadera et al. [29]) | Effect on Plasmodium mitochondrial complex II [5] | IC50 ([5]; ref Kawahara et al. [14]) | IC50 ([4]; ref Mogi et al. [34]) | IC50 ([5]; ref Suraveratum et al. [30])
1 | O=C1C(O)=C([C@H]2CC[C@H](c3ccc(Cl)cc3)CC2)C(=O)c2ccccc21 [Atovaquone] | 0.56 nM | > 100 nM | – | – | – | – | – | –
2 | COc1[nH]c(=O)c(C(=O)[C@@H](C)C[C@H](C)[C@@H](Cl)CCl)c(O)c1OC [Atpenin A5] | – | – | 0.00087 | 4 nM | ineffective | 4.6 ± 0.2 µM | – | –
3 | CC1=C(C(=O)Nc2ccccc2)SCCO1 [Carboxin] | – | – | 0.28 | 1000 nM | ineffective | 3.6 ± 1 µM | – | –
4 | O=C(O)CC(=O)O [Malonate] | – | – | 0.26 | – | – | – | 3400 nM | 13.2 ± 0.49 µM
5 | O=C(CC(=O)C(F)(F)F)c1cccs1 [TTFA, 2-thenoyltrifluoroacetone] | – | – | <0.11 | 5400 nM | ineffective | – | – | > 50 µM

Source: publication PMC9319939, “Siccanin Is a Dual-Target Inhibitor of Plasmodium falciparum Mitochondrial Complex II and Complex III” (Pharmaceuticals, 2022)
